{
  "source": "patent US20100190788A1",
  "about": "“Amide derivatives as kinase inhitors” (priority 2005, published 2010)",
  "note": "Structures can show the parent of a compound that is named as a salt.",
  "data": [
    {"biological_target": "T1, human ROCKα/ROCKII mix (Homo sapiens, UniProt O75116)", "T1 construct": "purchased Upstate Biotechnology 14-451", "T1 sequence (O75116 whole entry)": "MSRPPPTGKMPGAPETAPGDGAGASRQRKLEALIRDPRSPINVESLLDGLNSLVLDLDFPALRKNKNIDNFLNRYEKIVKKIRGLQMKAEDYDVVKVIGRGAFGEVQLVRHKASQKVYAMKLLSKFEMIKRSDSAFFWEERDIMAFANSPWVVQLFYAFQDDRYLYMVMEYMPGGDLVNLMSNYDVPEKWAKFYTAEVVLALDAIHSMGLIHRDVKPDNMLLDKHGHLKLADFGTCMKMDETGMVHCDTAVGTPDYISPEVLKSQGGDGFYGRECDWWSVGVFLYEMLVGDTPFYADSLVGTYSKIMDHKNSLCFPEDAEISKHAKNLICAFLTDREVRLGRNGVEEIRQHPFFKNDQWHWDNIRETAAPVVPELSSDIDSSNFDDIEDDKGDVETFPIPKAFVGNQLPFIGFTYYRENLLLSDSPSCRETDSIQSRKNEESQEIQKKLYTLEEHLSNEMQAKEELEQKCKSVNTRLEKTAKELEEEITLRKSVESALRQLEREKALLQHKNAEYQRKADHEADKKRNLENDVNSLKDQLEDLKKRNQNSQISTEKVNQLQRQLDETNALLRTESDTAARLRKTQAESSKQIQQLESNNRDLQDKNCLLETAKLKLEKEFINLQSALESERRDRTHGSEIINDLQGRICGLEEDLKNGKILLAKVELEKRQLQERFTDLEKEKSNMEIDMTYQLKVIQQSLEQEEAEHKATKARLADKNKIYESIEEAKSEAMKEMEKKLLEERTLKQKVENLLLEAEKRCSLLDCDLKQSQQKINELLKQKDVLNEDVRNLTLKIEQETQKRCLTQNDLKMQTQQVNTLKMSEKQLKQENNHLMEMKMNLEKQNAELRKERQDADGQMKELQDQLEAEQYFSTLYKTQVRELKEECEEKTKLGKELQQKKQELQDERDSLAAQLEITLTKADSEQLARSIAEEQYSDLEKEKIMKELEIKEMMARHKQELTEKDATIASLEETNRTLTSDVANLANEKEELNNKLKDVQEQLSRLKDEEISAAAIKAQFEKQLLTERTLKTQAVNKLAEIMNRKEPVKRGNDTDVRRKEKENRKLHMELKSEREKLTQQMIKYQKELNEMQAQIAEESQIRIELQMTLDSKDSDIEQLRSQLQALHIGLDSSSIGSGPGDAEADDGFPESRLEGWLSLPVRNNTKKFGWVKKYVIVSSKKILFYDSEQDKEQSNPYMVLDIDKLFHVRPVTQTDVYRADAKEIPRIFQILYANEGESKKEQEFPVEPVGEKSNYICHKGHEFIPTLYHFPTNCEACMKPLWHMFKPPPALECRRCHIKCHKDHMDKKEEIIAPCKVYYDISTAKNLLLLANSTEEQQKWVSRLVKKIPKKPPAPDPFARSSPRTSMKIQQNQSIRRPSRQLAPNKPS", "test": "ROCK inhibition, fluorescence polarization (FP) assay with ROCK IMAP Kit", "type": "biochemical", "settings": "Table 1, compounds of Formula IV20", "experimental": "(§1) The compounds were tested for inhibition of human ROCKα/ROCKII mix.\n(§2) The inhibition assays were performed with a fluorescence polarization (FP) assay using the commercially available ROCK IMAP Kit from Molecular Devices (Product ID. No. R8093), essentially in accordance with the protocol supplied by the manufacturer. […] The enzyme mix ROCKα/ROCKII was obtained from Upstate Biotechnology (Product ID No 14-451).\n(§3) In summary, all compounds were screened in the wells of a 384 well plate for enzymatic inhibition with concentrations varying from 100 μM to 0.3 nM using a stepwise 3 (or 2)-fold dilution.\n(§4) To perform the assay, 1 μl of a solution of the compound to be tested in DMSO (at each concentration) was added to 2 μl of a solution of the enzyme in 10 mM Tris-HCl, 10 mM MgCl2, 0.1% BSA, 0.05% NaN3, pH 7.2. The final concentration of the enzyme was 2.6 nM.\n(§5) After incubating for 30 minutes at RT, 2 μl of a mixture of ATP and the protein substrate in 10 mM Tris-HCl, 10 mM MgCl2, 0.1% BSA, 0.05% NaN3, pH 7.2 was added. The final concentration of the ATP was 10 μM and final concentration of protein substrate was 0.2 μM.\n(§6) After incubating for 60 minutes at RT, 12 μl of the IMAP Binding Solution (mix of the IMAP Binding Buffer A (1×) and the IMAP Binding Reagent (from the ROCK IMAP kit)) was added.\n(§7) The mixture thus obtained (total volume: 17 μl) was incubated for 60 minutes at RT, upon which the fluorescence polarization was measured using an automated plate reader (Perkin Elmer, Model Envision 2100-0010 HTS) with FP filters: excitation filter FITC FP 480 and emission filters FITC FP P-pol 535 and FITC FP S-pol 535 (Perkin-Elmer). The results were fitted to a curve using the XL-Fit algorithm and IC50 values were calculated for each fitted curve, again using the XL-Fit algorithm.", "units": {"IC50": "µM"}, "values": [
      {"smiles": "NC(C(=O)NCCc1ccccc1)c1ccc(C(=O)Nc2ccncc2)cc1", "note": "(stereo not shown) [Compound 14, 4-(amino-phenethylcarbamoyl-methyl)-N-pyridin-4-yl-benzamide]", "IC50": "< 0.5"},
      {"smiles": "COCCNC(=O)C(N)c1ccc(C(=O)Nc2ccncc2)cc1", "note": "(stereo not shown) [Compound 39, 4-[amino-(2-methoxy-ethylcarbamoyl)-methyl]-N-pyridin-4-yl-benzamide]", "IC50": "0.5 to 5"},
      {"smiles": "CN(C)CCNC(=O)C(N)c1ccc(C(=O)Nc2ccncc2)cc1", "note": "(stereo not shown) [Compound 44]", "IC50": "0.5 to 5"},
      {"smiles": "NC(C(=O)NCCn1ccnc1)c1ccc(C(=O)Nc2ccncc2)cc1", "note": "(stereo not shown) [Compound 19, 4-[amino-(2-imidazol-1-yl-ethylcarbamoyl)-methyl]-N-pyridin-4-yl-benzamide]", "IC50": "0.5 to 5"},
      {"smiles": "NC(C(=O)NCCc1ccc(F)cc1)c1ccc(C(=O)Nc2ccncc2)cc1", "note": "(stereo not shown) [Compound 16, 4-{amino-[2-(4-fluoro-phenyl)ethylcarbamoyl]-methyl}-N-pyridin-4-yl-benzamide]", "IC50": "< 0.5"},
      {"smiles": "NC(C(=O)NCc1ccccc1Cl)c1ccc(C(=O)Nc2ccncc2)cc1", "note": "(stereo not shown) [Compound 6, 4-[amino-(2-chloro-benzylcarbamoyl)-methyl]-N-pyridin-4-yl-benzamide]", "IC50": "< 0.5"},
      {"smiles": "NC(C(=O)NC1Cc2ccccc2C1)c1ccc(C(=O)Nc2ccncc2)cc1", "note": "(stereo not shown) [Compound 15, 4-[amino-(indan-2-ylcarbamoyl)-methyl]-N-pyridin-4-yl-benzamide]", "IC50": "< 0.5"},
      {"smiles": "CC(C)N1CCN(C(=O)C(N)c2ccc(C(=O)Nc3ccncc3)cc2)CC1", "note": "(stereo not shown) [Compound 46, 4-[1-amino-2-(4-isopropyl-piperazin-1-yl)-2-oxo-ethyl]-N-pyridin-4-yl-benzamide]", "IC50": "0.5 to 5"},
      {"smiles": "CCC(C)(C)NC(=O)C(N)c1ccc(C(=O)Nc2ccncc2)cc1", "note": "(stereo not shown) [Compound 24, 4-[amino-(1,1-dimethyl-propylcarbamoyl)-methyl]-N-pyridin-4-yl-benzamide]", "IC50": "0.5 to 5"},
      {"smiles": "CN(Cc1ccccc1)C(=O)C(N)c1ccc(C(=O)Nc2ccncc2)cc1", "note": "(stereo not shown) [Compound 3, 4-[amino-(benzyl-methyl-carbamoyl)-methyl]-N-pyridin-4-yl-benzamide]", "IC50": "< 0.5"},
      {"smiles": "COCC(C)NC(=O)C(N)c1ccc(C(=O)Nc2ccncc2)cc1", "note": "(stereo not shown) [Compound 43, 4-[amino-(2-methoxy-1-methyl-ethylcarbamoyl)-methyl]-N-pyridin-4-yl-benzamide]", "IC50": "0.5 to 5"},
      {"smiles": "CC1CC(C)CN(C(=O)C(N)c2ccc(C(=O)Nc3ccncc3)cc2)C1", "note": "(stereo not shown) [Compound 27, 4-[1-amino-2-(3,5-dimethyl-piperidin-1-yl)-2-oxo-ethyl]-N-pyridin-4-yl-benzamide]", "IC50": "< 0.5"}
    ]},
    {"biological_target": "T1, human ROCKα/ROCKII mix", "test": "ROCK inhibition, fluorescence polarization (FP) assay with ROCK IMAP Kit", "type": "biochemical", "settings": "Table 2, compounds of Formula V20", "experimental": "as §1, §2, §3, §4, §5, §6, §7", "units": {"IC50": "µM"}, "values": [
      {"smiles": "NC(CNS(=O)(=O)Cc1ccccc1)c1ccc(C(=O)Nc2ccncc2)cc1", "note": "(stereo not shown) [Compound 60, 4-(1-amino-2-phenylmethanesulfonylamino-ethyl)-N-pyridin-4-yl-benzamide]", "IC50": "< 0.5"},
      {"smiles": "Cc1cccc(S(=O)(=O)NCC(N)c2ccc(C(=O)Nc3ccncc3)cc2)c1", "note": "(stereo not shown) [Compound 63]", "IC50": "< 0.5"},
      {"smiles": "NC(CNS(=O)(=O)c1ccccc1F)c1ccc(C(=O)Nc2ccncc2)cc1", "note": "(stereo not shown) [Compound 66, 4-[1-amino-2-(2-fluoro-benzenesulfonylamino)-ethyl]-N-pyridin-4-yl-benzamide]", "IC50": "< 0.5"},
      {"smiles": "NC(CNS(=O)(=O)c1ccc(Oc2ccccc2)cc1)c1ccc(C(=O)Nc2ccncc2)cc1", "note": "(stereo not shown) [Compound 74, 4-[1-amino-2-(4-phenoxy-benzenesulfonylamino)-ethyl]-N-pyridin-4-yl-benzamide]", "IC50": "0.5 to 5"},
      {"smiles": "NC(CNS(=O)(=O)c1ccc(-c2ccccc2)cc1)c1ccc(C(=O)Nc2ccncc2)cc1", "note": "(stereo not shown) [Compound 76]", "IC50": "0.5 to 5"},
      {"smiles": "COc1ccc(S(=O)(=O)NCC(N)c2ccc(C(=O)Nc3ccncc3)cc2)cc1OC", "note": "(stereo not shown) [Compound 71, 4-[1-amino-2-(3,4-dimethoxy-benzenesulfonylamino)-ethyl]-N-pyridin-4-yl-benzamide]", "IC50": "< 0.5"},
      {"smiles": "CS(=O)(=O)NCC(N)c1ccc(C(=O)Nc2ccncc2)cc1", "note": "(stereo not shown) [Compound 55, 4-(1-amino-2-methanesulfonylamino-ethyl)-N-pyridin-4-yl-benzamide]", "IC50": "< 0.5"},
      {"smiles": "Cc1ccc(S(=O)(=O)NCC(N)c2ccc(C(=O)Nc3ccncc3)cc2)cc1", "note": "(stereo not shown) [Compound 62, 4-[1-amino-2-(4-methyl-benzenesulfonylamino)-ethyl]-N-pyridin-4-yl-benzamide]", "IC50": "< 0.5"}
    ]},
    {"biological_target": "T1, human ROCKα/ROCKII mix", "test": "ROCK inhibition, fluorescence polarization (FP) assay with ROCK IMAP Kit", "type": "biochemical", "settings": "Table 3, compounds of Formula III20", "experimental": "as §1, §2, §3, §4, §5, §6, §7", "units": {"IC50": "µM"}, "values": [
      {"smiles": "NC(CC(=O)N1CCCCC1c1cc(Cl)ccc1Cl)c1ccc(C(=O)Nc2ccncc2)cc1", "note": "(stereo not shown) [Compound 95, 4-{1-amino-3-[2-(2,5-dichloro-phenyl)-piperidin-1-yl]-3-oxo-propyl}-N-pyridin-4-yl-benzamide]", "IC50": "< 0.5"},
      {"smiles": "NC(CC(=O)N1CCN(CCO)CC1)c1ccc(C(=O)Nc2ccncc2)cc1", "note": "(stereo not shown) [Compound 115, 4-{1-amino-3-[4-(2-hydroxy-ethyl)-piperazin-1-yl]-3-oxo-propyl}-N-pyridin-4-yl-benzamide]", "IC50": "< 0.5"},
      {"smiles": "NC(CC(=O)N1CCN(Cc2ccccc2F)CC1)c1ccc(C(=O)Nc2ccncc2)cc1", "note": "(stereo not shown) [Compound 122, 4-{1-amino-3-[4-(2-fluoro-benzyl)-piperazin-1-yl]-3-oxo-propyl}-N-pyridin-4-yl-benzamide]", "IC50": "< 0.5"},
      {"smiles": "NC(CC(=O)N1CCCC1c1ccc(Cl)cc1)c1ccc(C(=O)Nc2ccncc2)cc1", "note": "(stereo not shown) [Compound 90, 4-{1-amino-3-[2-(4-chloro-phenyl)-pyrrolidin-1-yl]-3-oxo-propyl}-N-pyridin-4-yl-benzamide]", "IC50": "< 0.5"},
      {"smiles": "NC(CC(=O)N1CCC(c2c[nH]c3ccccc23)CC1)c1ccc(C(=O)Nc2ccncc2)cc1", "note": "(stereo not shown) [Compound 125, 4-{1-amino-3-[4-(1H-indol-3-yl)-piperidin-1-yl]-3-oxo-propyl}-N-pyridin-4-yl-benzamide]", "IC50": "< 0.5"},
      {"smiles": "COc1cccc(C2CCCCN2C(=O)CC(N)c2ccc(C(=O)Nc3ccncc3)cc2)c1", "note": "(stereo not shown) [Compound 98, 4-{1-amino-3-[2-(3-methoxy-phenyl)-piperidin-1-yl]-3-oxo-propyl}-N-pyridin-4-yl-benzamide]", "IC50": "< 0.5"},
      {"smiles": "NC(CC(=O)N1CCCC1c1cc(F)ccc1F)c1ccc(C(=O)Nc2ccncc2)cc1", "note": "(stereo not shown) [Compound 88, 4-{1-amino-3-[2-(2,5-difluoro-phenyl)-pyrrolidin-1-yl]-3-oxo-propyl}-N-pyridin-4-yl-benzamide]", "IC50": "< 0.5"},
      {"smiles": "NC(CC(=O)N1Cc2ccccc2C1)c1ccc(C(=O)Nc2ccncc2)cc1", "note": "(stereo not shown) [Compound 105, 4-[1-amino-3-(1,3-dihydro-isoindol-2-yl)-3-oxo-propyl]-N-pyridin-4-yl-benzamide]", "IC50": "< 0.5"},
      {"smiles": "NC(CC(=O)N1CCSC1)c1ccc(C(=O)Nc2ccncc2)cc1", "note": "(stereo not shown) [Compound 106, 4-(1-amino-3-oxo-3-thiazolidin-3-yl-propyl)-N-pyridin-4-yl-benzamide]", "IC50": "< 0.5"},
      {"smiles": "NC(CC(=O)N1CCCCC1c1ccccc1)c1ccc(C(=O)Nc2ccncc2)cc1", "note": "(stereo not shown) [Compound 92, 4-[1-amino-3-oxo-3-(2-phenyl-piperidin-1-yl)-propyl]-N-pyridin-4-yl-benzamide]", "IC50": "< 0.5"},
      {"smiles": "NC(CC(=O)N1CCCC1c1cccc(Cl)c1)c1ccc(C(=O)Nc2ccncc2)cc1", "note": "(stereo not shown) [Compound 85, 4-{1-amino-3-[2-(3-chloro-phenyl)-pyrrolidin-1-yl]-3-oxo-propyl}-N-pyridin-4-yl-benzamide]", "IC50": "< 0.5"},
      {"smiles": "NC(CC(=O)N1CCOCC1c1ccc(Cl)cc1)c1ccc(C(=O)Nc2ccncc2)cc1", "note": "(stereo not shown) [Compound 100, 4-{1-amino-3-[3-(4-chloro-phenyl)-morpholin-4-yl]-3-oxo-propyl}-N-pyridin-4-yl-benzamide]", "IC50": "< 0.5"}
    ]},
    {"biological_target": "T1, human ROCKα/ROCKII mix", "test": "ROCK inhibition, fluorescence polarization (FP) assay with ROCK IMAP Kit", "type": "biochemical", "settings": "Table 4, compounds 132 to 156", "experimental": "as §1, §2, §3, §4, §5, §6, §7", "units": {"IC50": "µM"}, "values": [
      {"smiles": "NC(c1ccc(C(=O)Nc2ccncc2)cc1)C1CCCN1S(=O)(=O)c1ccc(Cl)cc1", "note": "(stereo not shown) [Compound 135, 4-{Amino-[1-(4-chloro-benzenesulfonyl)-pyrrolidin-2-yl]-methyl}-N-pyridin-4-yl-benzamide dihydrochloric acid salt]", "IC50": "0.5 to 5"},
      {"smiles": "CN(CC(N)c1ccc(C(=O)Nc2ccncc2)cc1)S(=O)(=O)c1ccc(Cl)cc1", "note": "(stereo not shown) [Compound 145, 4-{1-Amino-2-[(4-chloro-benzenesulfonyl)-methyl-amino]-ethyl}-N-pyridin-4-yl-benzamide dihydrochloric acid salt]", "IC50": "0.5 to 5"},
      {"smiles": "N[C@H](CC(=O)N1CCC[C@@H]1c1cccc(F)c1)c1ccc(C(=O)Nc2ccncc2)cc1", "note": "[Compound 149, 4-{(R)-1-Amino-3-[(R)-2-(3-fluoro-phenyl)-pyrrolidin-1-yl]-3-oxo-propyl}-N-pyridin-4-yl-benzamide dihydrochloric acid salt]", "IC50": "< 0.5"},
      {"smiles": "NC(c1ccc(C(=O)Nc2ccncc2)cc1)C1CCCN1S(=O)(=O)c1cccc(Cl)c1", "note": "(stereo not shown) [Compound 134, 4-{Amino-[1-(3-chloro-benzenesulfonyl)-pyrrolidin-2-yl]-methyl}-N-pyridin-4-yl-benzamide dihydrochloric acid salt]", "IC50": "0.5 to 5"},
      {"smiles": "N[C@@H](C(=O)NCc1ccccc1)c1ccc(C(=O)Nc2ccncc2)cc1", "note": "[Compound 156, 4-((R)-Amino-benzylcarbamoyl-methyl)-N-pyridin-4-yl-benzamide dihydrochloric acid salt]", "IC50": "0.5 to 5"}
    ]}
  ]
}
